The subject of this experiment is cellular CDK9 activity (RNA Polymerase II Ser2 phosphorylation) in HCT-116 cells. As to the kind of experiment: RNA-Polymerase II Ser2 cellular phosphorylation assay. The format is cell-based. Conditions: Homo sapiens, 72 h, normalized with tubulin, read-out: RNA Polymerase II Ser2 Phosphorylation (activity range), IC50. Here is the method: HCT-116 cells (DSMZ, Braunschweig, Germany) were maintained in Mc Coy's cell culture medium+glutamine (PAN Biotech GmbH, Aidenbach, Germany) supplemented with 10% fetal calf serum (PAA Laboratories GmbH, Pasching, Austria) and grown at 37° C., 5% CO2. For the cellular phosphorylation assay, cells were seeded with 2×10^5 cells/well/1 ml in 24-well plates (Greiner Bio One, Frickenhausen, Germany; catalog #662160). The compounds of general formula (I) summarized in Table 6 were diluted from a 10 mM DMSO stock solution 1:10 in a total volume of 15 μL DMSO. After overnight incubation at 37° C./5% CO2, 1.5 μL of a compound diluted in DMSO was added to each sample well. Wells with cells and 0.15% DMSO in culture medium were used as positive controls, wells without cells and 0.15% DMSO in culture medium were used as negative controls. The cells were incubated with the compounds for 72 h at 37° C./5% CO2. […] Phosphorylation of RNA Polymerase II Ser2 and tubulin levels for normalization were analyzed afterwards with the Multi-Array technology (Meso Scale Discovery, Gaithersburg, Md., USA), a combination of antibody coupled electrochemiluminescence detection and patterned arrays. […] Finally, plates were washed three times with Tris Wash Buffer, 150 μl 2× Read Buffer (Meso Scale Discovery) were added per well and plates were analyzed immediately in a Sector Imager from Meso Scale Discovery. […]

For the compound `COc1ccccc1-c1ccnc(Nc2cccc(S(N)(=O)=O)c2)c1` [Compound D1, 3-[(4-(2-Methoxyphenyl)pyridin-2-yl)amino]benzenesulfonamide], the IC50 was in the range of 1 to 10 µM.

Broadly, the IC50 is the concentration needed to halve the response being measured.

Source of the values: patent US9242937B2, “Pharmaceutically active disubstituted pyridine derivatives” (Bayer Intellectual Property GmbH, priority 2011, dated 2016).
